Assay results: US20140378472A1, “AMORPHOUS VILAZODONE HYDROCHLORIDE, A PROCESS FOR ITS PREPARATION AND PHARMACEUTICAL COMPOSITIONS THEREOF” (RANBAXY LABORATORIES LIMITED, priority 2011, published 2014)

Test: storage stability of the amorphous form, followed by XRPD
Type: physicochemical
Settings: storage at 25° C. and 52% relative humidity (RH) for 24 days; XRPD pattern similar to FIG. 5 (sample of Example 3)
Procedure: XRPD of the samples were determined by using a Panalytical X'Pert Pro X-Ray Powder Diffractometer in the range 3-40 degree 2 theta and under a tube voltage and current of 45 Kv and 40 mA, respectively. Copper radiation of wavelength 1.54 angstrom and Xceletor detector was used.

For `Cl.N#Cc1ccc2[nH]cc(CCCCN3CCN(c4ccc5oc(C(N)=O)cc5c4)CC3)c2c1` [amorphous vilazodone hydrochloride, 5-{4-[4-(5-cyano-1H-indo1-3-yl)butyl]piperazin-1-yl}-1-benzofuran-2-carboxamide hydrochloride], which “polymorphic stability on storage (XRPD)” value is on record?
Its value is “stable and does not convert to any other polymorphic form”.
